According to article PMC11537054, “A conserved two-component system senses intracellular iron levels and regulates redox balance in Mycobacterium spp” (Microbiology Spectrum, 2024):
pKd: −log10 of the molar value.

Molecular target: PdtaS (PdtaS-eGFP) (Mycobacterium tuberculosis, UniProt P9WGL5)
Assay: biochemical

Chain of PdtaS (PdtaS-eGFP) (P9WGL5 whole entry): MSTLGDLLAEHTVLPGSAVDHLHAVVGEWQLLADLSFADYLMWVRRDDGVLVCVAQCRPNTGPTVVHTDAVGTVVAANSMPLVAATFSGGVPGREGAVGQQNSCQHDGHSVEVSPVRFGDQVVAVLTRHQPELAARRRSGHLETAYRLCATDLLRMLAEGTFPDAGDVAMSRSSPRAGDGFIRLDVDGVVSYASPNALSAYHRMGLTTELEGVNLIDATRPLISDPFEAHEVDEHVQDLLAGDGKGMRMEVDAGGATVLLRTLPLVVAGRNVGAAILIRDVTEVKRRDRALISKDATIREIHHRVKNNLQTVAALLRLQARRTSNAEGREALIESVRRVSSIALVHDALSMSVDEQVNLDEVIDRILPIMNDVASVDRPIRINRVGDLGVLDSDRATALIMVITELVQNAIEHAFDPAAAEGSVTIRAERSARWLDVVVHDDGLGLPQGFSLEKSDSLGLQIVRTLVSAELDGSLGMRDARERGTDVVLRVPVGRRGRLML

Q: C=CC1=C(C)C2=Cc3c(C=C)c(C)c4[n]3[Fe]([Cl])[n]3c(c(C)c(CCC(=O)O)c3=CC3=NC(=C4)C(C)=C3CCC(=O)O)=CC1=N2 [hemin] was tested. Which pKd did it give?
A: Its pKd is about 7.76.
